Target: T1, Glutaminase kidney isoform, mitochondrial (Homo sapiens, UniProt O94925)
T1 sequence (O94925 whole entry): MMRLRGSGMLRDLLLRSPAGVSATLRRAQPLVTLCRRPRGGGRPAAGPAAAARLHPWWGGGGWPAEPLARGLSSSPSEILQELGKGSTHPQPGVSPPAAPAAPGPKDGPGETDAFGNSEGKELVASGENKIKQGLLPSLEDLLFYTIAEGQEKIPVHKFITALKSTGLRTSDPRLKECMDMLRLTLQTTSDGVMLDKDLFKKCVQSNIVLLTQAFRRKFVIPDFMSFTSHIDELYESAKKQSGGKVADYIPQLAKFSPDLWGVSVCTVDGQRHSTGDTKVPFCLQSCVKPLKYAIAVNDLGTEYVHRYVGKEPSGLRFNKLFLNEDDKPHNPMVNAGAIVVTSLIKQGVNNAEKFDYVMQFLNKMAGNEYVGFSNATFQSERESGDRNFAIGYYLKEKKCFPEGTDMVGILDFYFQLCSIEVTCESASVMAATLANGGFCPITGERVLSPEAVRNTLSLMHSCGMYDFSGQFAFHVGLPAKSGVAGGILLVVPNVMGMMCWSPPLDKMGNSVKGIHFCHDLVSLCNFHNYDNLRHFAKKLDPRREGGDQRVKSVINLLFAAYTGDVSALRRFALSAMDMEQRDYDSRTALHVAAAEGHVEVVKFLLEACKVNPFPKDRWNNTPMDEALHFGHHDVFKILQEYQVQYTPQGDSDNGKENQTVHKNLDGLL
Assay: Enzymatic Activity Assay: The inhibition of purified recombinant human GAC by varying concentrations of inhibitors is assessed via a dual-coupled enzymatic assay. The glutamate produced by the glutaminase reaction is used by glutamate oxidase to produce α-ketoglutarate, ammonia, and hydrogen peroxide, with this hydrogen peroxide subsequently being used by horseradish peroxidase to produce resorufin in the presence of Amplex UltraRed. The assay buffer consisted of 50 mM Hepes (pH 7.4), 0.25 mM EDTA and 0.1 mM Triton X-100. GAC was incubated with potassium phosphate (10 minutes at room temperature) prior to incubation with inhibitor (10 minutes at room temperature). The final reaction conditions were as follows: 2 nM GAC, 50 mM potassium phosphate, 100 mU/mL glutamate oxidase (Sigma), 1 mM glutamine (Sigma), 100 mU/mL horseradish peroxidase (Sigma), 75 μM Amplex UltraRed (Life Technologies), and 1% (v/v) DMSO. The production of resorufin was monitored on a Perkin Elmer Envision plate reader (excitation 530 nm, emission 590 nm) either in a kinetics or endpoint mode (at 20 minutes). IC50 values were calculated using a four-parameter logistic curve fit.

| SMILES | IC50 [nM] |
| --- | --- |
| O=C(NCc1cccc(OC(F)(F)F)c1)c1cn(CCCCn2cc(C(=O)NCc3ccc(C(F)(F)F)cn3)nn2)nn1 | < 100 |
| COc1cncc(CNC(=O)c2cn(CC(F)CCc3nnc(NC(=O)Cc4cccc(OC(F)(F)F)c4)s3)nn2)c1 (stereo not drawn) | < 100 |
| O=C(NCc1cc(C2CC2)ccn1)c1cn(CCC(F)Cn2cc(C(=O)NCc3cccc(C4CC4)c3)nn2)nn1 (stereo not drawn) | < 100 |

From ChEMBL document CHEMBL5727188, “GLS1 inhibitors for treating disease” (2019)
